Assay results taken from patent US12365655B2, “Compounds” (CTXT PTY LTD, priority 2018, dated 2025).

Columns and labels:
HBO-KAT7 = HBO-KAT7 (Homo sapiens, UniProt O95251); test: Acetyltransferase biochemical assay (AlphaScreen), KAT7
MOZ-KAT6A = MOZ-KAT6A (Homo sapiens, UniProt Q92794, A567V); test: Acetyltransferase biochemical assay (AlphaScreen), KAT6A
[1] = system: acetylation of the histone H3 Lysine 14 marker in U2OS cells; test: Histone H3 Lysine 14 Acetylation Biomarker Assay; format: cell-based; conditions: Homo sapiens, serum free medium, 24 hours incubation, read-out: IC50, inhibition of histone H3 Lysine 14 acetylation
Procedure: Compounds were tested for their ability to inhibit acetylation of the histone H3 Lysine 14 marker in the following assay:
The cell line U2OS was seeded at a density of 3,000 cells per well in 384-well optical quality tissue culture plates in RPMI medium supplemented with 10% foetal bovine serum and 10 mM Hepes. The cells were allowed to adhere for 24 hours under standard culture conditions (37 degree Celsius, 5% CO2). At the end of this period the cells were washed with serum free medium. […] After incubation for 24 hours, the cells were fixed with 4% formaldehyde in PBS for 15 minutes at room temperature, washed with phosphate buffer saline and blocked with blocking buffer containing 0.2% TritonX100 and 2% BSA. Anti-H3K14ac specific antibody (Cell Signalling Technologies) in blocking buffer was added and incubated overnight at 4 degree Celsius. After washing, a secondary antibody labelled with AlexaFluor 488 dye (ThermoFisher) and Hoechst 33342 (1 μg/mL, Life Technologies) were added for 2 hours incubation at room temperature. Plates were washed and read on a PerkinElmer Opera HCS high content imaging platform. Using a Columbus image analysis pipeline, individual nuclei were located by Hoechst 33342 stain and the acetylation level was calculated from the AlexaFluor 488-related intensity in the same area.

TIP60-KAT5 = TIP60-KAT5 (Homo sapiens, UniProt Q92993); test: Acetyltransferase biochemical assay (AlphaScreen), KAT5
MOF-KAT8 = target: T1, MOF-KAT8 (Homo sapiens, UniProt Q9H7Z6); test: biochemical
T1 sequence (Q9H7Z6 with tags, fused parts or gaps): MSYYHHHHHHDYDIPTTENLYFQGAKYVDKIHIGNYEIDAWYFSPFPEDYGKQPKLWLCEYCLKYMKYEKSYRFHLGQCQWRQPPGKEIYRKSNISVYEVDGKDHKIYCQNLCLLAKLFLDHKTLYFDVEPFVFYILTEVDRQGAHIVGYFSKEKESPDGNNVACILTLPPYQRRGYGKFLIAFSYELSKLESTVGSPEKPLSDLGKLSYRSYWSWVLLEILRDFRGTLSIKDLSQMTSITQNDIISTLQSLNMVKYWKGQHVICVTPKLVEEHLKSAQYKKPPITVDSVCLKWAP

[2] = system: histone H2A.Z Lysine 7 acetylation marker in U2OS cells; test: H2A.Z Lysine 7 Acetylation Biomarker Assay; format: cell-based; conditions: Homo sapiens, serum free medium, 24 hours incubation, read-out: IC50, inhibition of histone H2A.Z Lysine 7 acetylation
Procedure: Compounds were tested for their ability to inhibit the histone H2A.Z Lysine 7 acetylation marker in the following assay:
The cell line U2OS was seeded at a density of 3,000 cells per well in 384-well optical quality tissue culture plates in RPMI medium supplemented with 10% foetal bovine serum and 10 mM Hepes. The cells were allowed to adhere for 24 hours under standard culture conditions (37 degree Celsius, 5% CO2). At the end of this period the cells were washed with serum free medium. […] 2018, at 30 μM concentration. After incubation for 24 hours, the cells were fixed with 4% formaldehyde in PBS for 15 minutes at room temperature, washed with phosphate buffer saline and blocked with blocking buffer containing 0.2% TritonX100 and 2% BSA. Anti-H2A.ZK7ac specific antibody (Abcam) in blocking buffer was added and incubated overnight at 4 degree Celsius. After washing, a secondary antibody labelled with AlexaFluor 488 dye (ThermoFisher) and Hoechst 33342 (1 μg/mL, Life Technologies) were added for 2 hours incubation at room temperature. Plates were washed and read on a PerkinElmer Opera HCS high content imaging platform. Using a Columbus image analysis pipeline, individual nuclei were located by Hoechst 33342 stain and the acetylation level was calculated from the AlexaFluor 488-related intensity in the same area.

[3] = system: acetylation of the histone H3K23 marker in U2OS cells; test: Histone H3 Lysine 23 Acetylation Biomarker Assay; format: cell-based; conditions: Homo sapiens, 24 hours incubation, read-out: IC50, inhibition of histone H3K23 acetylation
Procedure: Compounds were tested for their ability to inhibit acetylation of the histone H3K23 marker in the following assay:
The cell line U2OS was seeded at a density of 9,000 cells per well in 96 well optical quality tissue culture plates in RPMI medium and 10% foetal bovine serum, and allowed to adhere for 24 hours under standard culture conditions (37 degree Celsius, 5% CO2). At the end of this period the medium was aspirated. […] After incubation for 24 hours, the cells were fixed with 3.7% formaldehyde in PBS for 20 minutes at room temperature, washed (5×5 minutes) with phosphate buffer saline containing 0.1% Tween 20 and blocked with Odyssey blocking buffer (LI-COR, Lincoln, Nebr.) containing 0.1% TritonX100. Anti-H3K23ac specific antibody (Abcam ab177275) in Odyssey blocking buffer containing 0.1% Tween 20 was added and incubated for 16 hours at 4 degree Celsius. After washing (as above), a secondary antibody labelled with Alexa647 dye (LifeTechnologies) and Hoechst 33342 (1 μg/mL, SigmaAldrich) were added for 1 hour incubation. Plates were washed as previously and read on a PerkinElmer Phenix high content imaging platform. Using a Columbus image analysis pipeline, individual nuclei were located by Hoechst 33342 stain and the acetylation level was calculated from the Alexa647-related intensity in the same area.

Chain of HBO-KAT7 (O95251 with tags, fused parts or gaps): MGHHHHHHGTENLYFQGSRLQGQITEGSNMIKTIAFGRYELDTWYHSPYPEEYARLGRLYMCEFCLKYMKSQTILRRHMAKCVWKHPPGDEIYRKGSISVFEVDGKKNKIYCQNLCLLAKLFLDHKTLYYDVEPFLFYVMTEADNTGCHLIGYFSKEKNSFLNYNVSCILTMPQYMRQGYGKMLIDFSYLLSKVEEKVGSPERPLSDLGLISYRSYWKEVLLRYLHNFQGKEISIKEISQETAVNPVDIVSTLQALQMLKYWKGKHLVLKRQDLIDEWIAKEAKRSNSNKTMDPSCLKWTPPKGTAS
Chain of TIP60-KAT5 (Q92993 with tags, fused parts or gaps isoform Q92993-2): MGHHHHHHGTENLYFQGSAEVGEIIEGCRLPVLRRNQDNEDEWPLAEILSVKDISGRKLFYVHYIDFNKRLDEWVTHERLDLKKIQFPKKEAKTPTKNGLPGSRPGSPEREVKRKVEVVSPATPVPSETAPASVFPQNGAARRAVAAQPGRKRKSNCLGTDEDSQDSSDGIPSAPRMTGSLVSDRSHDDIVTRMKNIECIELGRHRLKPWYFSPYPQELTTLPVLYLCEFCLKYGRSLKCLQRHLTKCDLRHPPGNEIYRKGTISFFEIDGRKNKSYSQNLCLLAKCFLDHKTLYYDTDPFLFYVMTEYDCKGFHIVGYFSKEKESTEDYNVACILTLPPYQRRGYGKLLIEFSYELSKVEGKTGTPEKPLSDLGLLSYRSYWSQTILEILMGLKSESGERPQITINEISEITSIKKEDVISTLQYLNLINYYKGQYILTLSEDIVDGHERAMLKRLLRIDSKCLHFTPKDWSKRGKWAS
Chain of MOZ-KAT6A (Q92794 with tags, fused parts or gaps A567V): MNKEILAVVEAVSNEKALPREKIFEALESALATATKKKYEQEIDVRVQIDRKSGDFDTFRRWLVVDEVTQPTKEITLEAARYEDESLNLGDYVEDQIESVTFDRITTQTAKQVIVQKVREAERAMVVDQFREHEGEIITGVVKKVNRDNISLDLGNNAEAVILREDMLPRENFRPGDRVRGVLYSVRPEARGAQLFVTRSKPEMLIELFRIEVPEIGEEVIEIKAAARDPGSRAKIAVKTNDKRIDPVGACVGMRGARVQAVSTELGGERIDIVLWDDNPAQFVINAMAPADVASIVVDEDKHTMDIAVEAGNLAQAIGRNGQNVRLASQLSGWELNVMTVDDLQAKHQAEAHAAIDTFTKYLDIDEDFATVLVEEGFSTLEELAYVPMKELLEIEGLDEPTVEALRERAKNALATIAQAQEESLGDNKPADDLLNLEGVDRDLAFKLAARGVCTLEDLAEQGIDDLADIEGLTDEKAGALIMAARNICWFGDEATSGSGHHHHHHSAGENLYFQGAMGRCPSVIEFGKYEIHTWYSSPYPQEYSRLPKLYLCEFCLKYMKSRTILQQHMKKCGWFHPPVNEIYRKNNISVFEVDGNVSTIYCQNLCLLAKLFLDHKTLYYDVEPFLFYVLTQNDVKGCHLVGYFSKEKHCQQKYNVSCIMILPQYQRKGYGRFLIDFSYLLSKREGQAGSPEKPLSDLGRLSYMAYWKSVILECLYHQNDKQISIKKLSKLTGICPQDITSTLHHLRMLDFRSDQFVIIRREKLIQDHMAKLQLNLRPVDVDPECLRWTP

| IC50 [1] [µM] | IC50 [2] [µM] | IC50 [3] [µM] | Compound | IC50 (HBO-KAT7) [µM] | IC50 (MOZ-KAT6A) [µM] | IC50 (TIP60-KAT5) [µM] | IC50 (MOF-KAT8) [µM] |
| --- | --- | --- | --- | --- | --- | --- | --- |
| 12.6 |  |  | COc1cccc2onc(NS(=O)(=O)c3cccc4c3OCCC4)c12 [Example 82, N-(4-methoxybenzo[d]isoxazol-3-yl)chromane-8-sulfonamide] | 1.5 | 6.13 | 8.25 |  |
| > 40 |  |  | COc1ccnc2c(S(=O)(=O)Nc3noc4cccc(OC)c34)cccc12 [Example 75, 4-methoxy-N-(4-methoxybenzo[d]isoxazol-3-yl)quinoline-8-sulfonamide] | 5.75 | 23.5 | 33.5 |  |
| > 40 |  |  | CCOc1cccc(OC)c1S(=O)(=O)Nc1noc2cccc(OC)c12 [Example 218, 2-Ethoxy-6-methoxy-N-(4-methoxybenzo[d]isoxazol-3-yl)benzenesulfonamide] | 6.44 | 6.59 | > 125 |  |
| 24.7 | > 40 |  | COc1cccc(OC)c1S(=O)(=O)Nc1noc2c(-c3ccccc3)cc(C)cc12 [Example 252, 2,6-Dimethoxy-N-(5-methyl-7-phenylbenzo[d]isoxazol-3-yl)benzenesulfonamide] | 1.3 | 4.16 | 102 |  |
|  |  | 1.58 | COc1cccc(OC)c1S(=O)(=O)Nc1noc2cccc(OC)c12 [Example 86, 2,6-dimethoxy-N-(4-methoxybenzo[d]isoxazol-3-yl)benzene sulfonamide] | 1.98 | 5.89 | 97.6 |  |
| 11.5 |  |  | COc1cccc2onc(NS(=O)(=O)c3cccc4ccc(C)nc34)c12 [Example 80, N-(4-methoxybenzo[d]isoxazol-3-yl)-2-methyl quinoline-8-sulfonamide] | 1.13 | 3.47 | 10.9 |  |
| 31.7 |  |  | COc1ccc(S(=O)(=O)Nc2noc3cccc(OC)c23)c2ncccc12 [Example 74, 5-methoxy-N-(4-methoxybenzo[d]isoxazol-3-yl) quinoline-8-sulfonamide] | 1.66 | 3.91 | 8.13 |  |
| 10.3 |  |  | COc1cccc(F)c1S(=O)(=O)Nc1noc2cccc(OC)c12 [Example 212, 2-Fluoro-6-methoxy-N-(4-methoxybenzo[d]isoxazol-3-yl)benzenesulfonamide] | 1.05 | 2.12 | 9.3 |  |
|  | > 40 |  | CCc1ccc(OC)c(S(=O)(=O)Nc2noc3ccc(C)cc23)c1 [Example 234, 5-Ethyl-2-methoxy-N-(5-methylbenzo[d]isoxazol-3-yl)benzenesulfonamide] | 3.74 | 0.381 | 10.9 |  |
| 3.96 | 19.8 |  | COc1cccc(OC)c1S(=O)(=O)Nc1noc2cc(Br)cc(OC)c12 [Example 89] | 0.168 | 0.285 | 5.79 |  |
| 2.57 |  |  | COc1ccc(S(=O)(=O)Nc2noc3cc(Br)c(C)cc23)c(OC)c1 [Example 171] | 0.292 | 1.88 | 4.37 |  |

The next lines start with the compound.

| Compound | IC50 [1] [µM] | IC50 [2] [µM] | IC50 [3] [µM] | IC50 (HBO-KAT7) [µM] | IC50 (MOZ-KAT6A) [µM] | IC50 (TIP60-KAT5) [µM] | IC50 (MOF-KAT8) [µM] |
| --- | --- | --- | --- | --- | --- | --- | --- |
| COc1ccc(S(=O)(=O)Nc2noc3cc(C(N)=O)c(C)cc23)c2ncccc12 [Example 168, 3-((5-methoxyquinoline)-8-sulfonamido)-5-methylbenzo[d]isoxazole-6-carboxamide] |  | > 40 |  | 36.4 | 10 | 3.42 | 6.46 |
| COc1cc(CNC(C)=O)cc(OC)c1S(=O)(=O)Nc1noc2cccc(OC)c12 [Example 211, N-(3,5-Dimethoxy-4-(N-(4-methoxybenzo[d]isoxazol-3-yl)sulfamoyl)benzyl)acetamide] | > 40 |  |  | 0.917 | 2.13 | 7.93 | 29.5 |
| COc1cccc(OCc2cnn(C)c2)c1S(=O)(=O)Nc1noc2cccc(OC)c12 [Example 221, 2-Methoxy-N-(4-methoxybenzo[d]isoxazol-3-yl)-6-((1-methyl-1H-pyrazol-4-yl)methoxy)benzenesulfonamide] |  |  |  | 63.7 | 37.5 | > 125 | 27.9 |
| CCc1cc(S(=O)(=O)Nc2noc3cccc(Cl)c23)c(=O)n(C)c1 [Example 107, N-(4-Chlorobenzo[d]isoxazol-3-yl)-5-ethyl-1-methyl-2-oxo-1,2-dihydropyridine-3-sulfonamide] |  |  |  | 11.7 | 14.9 | 74.1 | 42.1 |
| CS(=O)(=O)c1ccc(S(=O)(=O)Nc2noc3cccc(Cl)c23)cc1 [Example 21, N-(4-chlorobenzo [d]isoxazol-3-yl)-4-(methylsulfonyl) benzenesulfonamide] |  |  |  | 25.5 | 24.8 | > 125 | 39.7 |
| O=S(=O)(Nc1noc2cccc(Cl)c12)c1ccccc1 [Example 151, N-(4-chlorobenzo[d]isoxazol-3-yl)benzenesulfonamide] |  |  |  | 25.6 | 27.9 | > 125 | 34.7 |
| O=S(=O)(Nc1noc2cccc(Cl)c12)c1ccccc1-c1cnco1 [Example 11, N-(4-chlorobenzo [d]isoxazol-3-yl)-2-(oxazol-5-yl)benzenesulfonamide] |  |  |  | 60.5 | > 125 | > 125 | 35.6 |
| Cc1ncc(-c2ccc(C)c(S(=O)(=O)Nc3noc4cccc(Cl)c34)c2)o1 [Example 18, N-(4-chlorobenzo [d]isoxazol-3-yl)-2-methyl-5-(2-methyloxazol-5-yl)benzenesulfonamide] |  |  |  | 34.1 | 74.9 | 118 | 63.5 |
| CCc1ccc(OC)c(S(=O)(=O)Nc2noc3ccc(C4CC4)cc23)c1 [Example 236] | > 40 | > 40 |  | 1.07 | 0.318 | 10.1 | 3.68 |
| COCc1cc(OC)c2c(NS(=O)(=O)c3c(O)cccc3OC)noc2c1 [Example 163, 2-hydroxy-6-methoxy-N-(4-methoxy-6-(methoxymethyl)benzo[d]isoxazol-3-yl)benzenesulfonamide] | 20.4 |  |  | 13.1 | 0.884 | > 125 | > 125 |
| COc1cccc(OC)c1S(=O)(=O)Nc1noc2ccc(OC(F)(F)F)cc12 [Example 100, 2,6-Dimethoxy-N-(5-(trifluoromethoxy)benzo [d]isoxazol-3-yl)benzenesulfonamide] |  |  |  | 2.24 | 0.972 | 51.7 | 62.6 |
